# Data reported in ChEMBL document CHEMBL1201862, “PubChem BioAssay data set” (2004).
# Activity calls are given as the source filed them.
# Experiments:
# [1] = biological target: T1, Cysteine protease ATG4B (Homo sapiens, UniProt Q9Y4P1); type: functional;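 also: Fluorescence-based dose-response confirmation assay measuring inhibition of ATG4B activity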
# T1 sequence (Q9Y4P1 whole entry): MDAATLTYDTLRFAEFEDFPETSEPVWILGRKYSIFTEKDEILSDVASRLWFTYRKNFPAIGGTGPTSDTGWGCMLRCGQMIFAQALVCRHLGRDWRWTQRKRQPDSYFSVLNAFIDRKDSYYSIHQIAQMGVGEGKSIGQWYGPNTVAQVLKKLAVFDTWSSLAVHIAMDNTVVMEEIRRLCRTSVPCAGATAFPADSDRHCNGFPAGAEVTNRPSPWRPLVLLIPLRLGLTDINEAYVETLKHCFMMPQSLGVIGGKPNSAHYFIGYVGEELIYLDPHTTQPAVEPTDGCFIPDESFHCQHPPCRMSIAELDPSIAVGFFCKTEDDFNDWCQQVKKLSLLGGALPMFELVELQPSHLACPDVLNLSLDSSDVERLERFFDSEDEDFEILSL
# [2] = biological target: T2, Cannabinoid receptor 2 (Homo sapiens, UniProt P34972); test: SAR analysis of antagonists of the Cannabinoid Receptor 2 using an Image-Based Assay - Set 2. [Related pubchem assays (depositor defined):AID1961, AID1965]; type: functional
# [3] = biological target: T3, G-protein coupled receptor 55 (Homo sapiens, UniProt Q9Y2T6); test: SAR analysis of selective Agonists of GPR55 using an Image-Based Assay. [Related pubchem assays (depositor defined):AID1961, AID1965]; type: functional
# [4] = biological target: T3, G-protein coupled receptor 55; test: selective activators of receptor GPR55 – imaging, U2OS cells, beta-arrestin-GFP redistribution, primary screen (AID 1961); type: functional
# [5] = biological target: T2, Cannabinoid receptor 2; test: SAR analysis of agonists of the Cannabinoid Receptor 2 using an Image-Based Assay - Set 2. [Related pubchem assays (depositor defined):AID1961, AID1965]; type: functional
# [6] = biological target: T4, Heat shock factor protein 1 (Mus musculus, UniProt P38532); test: decrease of HSF1-responsive luciferase luminescence – cell-based, NIH3T3, dose retest, confirmation (AID 2382); type: functional;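 also: NIH3T3 fibroblasts with HSF1-driven luciferase reporter stressed by proteasome inhibitor MG132; luminescence from HSF1-driven luciferase expression after 8 hours of MG132 stress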
# T4 sequence (P38532 whole entry): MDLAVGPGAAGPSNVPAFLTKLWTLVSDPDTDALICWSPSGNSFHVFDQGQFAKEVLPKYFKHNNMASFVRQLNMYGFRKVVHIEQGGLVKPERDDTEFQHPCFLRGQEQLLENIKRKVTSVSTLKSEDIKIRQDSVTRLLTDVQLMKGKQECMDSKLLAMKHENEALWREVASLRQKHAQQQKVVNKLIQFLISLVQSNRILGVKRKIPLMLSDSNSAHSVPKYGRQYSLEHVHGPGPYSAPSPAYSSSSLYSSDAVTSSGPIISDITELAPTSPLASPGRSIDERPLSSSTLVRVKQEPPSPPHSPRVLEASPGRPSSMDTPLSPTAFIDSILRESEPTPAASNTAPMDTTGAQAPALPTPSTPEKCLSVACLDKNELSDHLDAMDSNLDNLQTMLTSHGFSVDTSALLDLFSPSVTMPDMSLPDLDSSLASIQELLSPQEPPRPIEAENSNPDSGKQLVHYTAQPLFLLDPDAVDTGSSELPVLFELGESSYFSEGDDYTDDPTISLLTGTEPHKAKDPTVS
# [7] = biological target: Phospholipase A2 (Homo sapiens, UniProt P04054); type: functional;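 also: confirmatory dose-response counterscreen on phospholipase A2, testing hits that came from an ultra-high-throughput screen for ATG4B inhibitors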
# [8] = biological target: Cannabinoid receptor 1 (Homo sapiens, UniProt P21554); test: SAR analysis of antagonists of the Cannabinoid Receptor 1 using an Image-Based Assay. [Related pubchem assays (depositor defined):AID1961, AID1965]; type: functional
# [9] = Counterscreen for AddAB inhibitors: absorbance-based bacterial cell-based high throughput dose response assay for inhibitors of bacterial viability. [Related pubchem assays (depositor defined):AID435030, AID449728, AID449731, AID488942, AID488955, AID488956]; type: functional
# [10] = biological target: Exodeoxyribonuclease V (Escherichia coli (strain K12), UniProt P04993+P07648+P08394); test: RecBCD inhibition via phage-restricted bacterial growth – absorbance, V66 E. coli, mutant T4 phage, counter-screen for AddAB inhibitor project, dose response (AID 492957); type: functional, cell-based, Escherichia coli str. K-12 substr. MG1655
# [11] = test system: H9c2; test: cells; type: functional, cell-based; conditions: Rattus norvegicus, H9c2, Myocardium;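 also: confirmatory concentration-response retest of ultra-high-throughput screening hits for modulation of myocardial damage; cell death induced by hydrogen peroxide oxidative stress; compound pretreatment for 60 min then peroxide exposure for 2 h; potency is for protecting the cells against peroxide damage rather than for killing them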
# [12] = biological target: T5, SUMO-activating enzyme (Homo sapiens, UniProt Q9UBT2); test: blockers of SAE1/SAE2–UBC9 SUMO transfer – biochemical, HTRF, uHTS, primary screen (AID 2006); type: protein-complex assay
# [13] = biological target: SUMO E1/E2 (Homo sapiens, UniProt P63279+Q9UBE0+Q9UBT2); test: SAR analysis of SUMOylation using HTRF in an in-Vitro dose response assay. [Related pubchem assays (depositor defined):AID2006, AID2011, AID2018, AID2069, AID2658]; type: functional
# [14] = biological target: T5, SUMO-activating enzyme; test: blockers of UBC9-mediated SUMO conjugation – biochemical, AlphaScreen, SUMOylation inhibitor project, confirmation (AID 2018); type: functional
# [15] = biological target: T6, Intestinal-type alkaline phosphatase (Homo sapiens, UniProt P09923); test: human intestinal alkaline phosphatase activators, dose response, biochemical, luminescence, uHTS hits (AID 463120); type: functional
# [16] = biological target: T6, Intestinal-type alkaline phosphatase; test: activation of human intestinal alkaline phosphatase – biochemical, luminescent, uHTS hits, set 2, dose response (AID 488817); type: functional;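 also: potency of activators that raise enzyme activity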
# [17] = biological target: T7, Alkaline phosphatase, tissue-nonspecific isozyme (Homo sapiens, UniProt P05186); test: activation of tissue-nonspecific alkaline phosphatase – biochemical, TNAP isozyme, human IAP uHTS hits, selectivity assay for human IAP activator project, dose response (AID 488886); type: functional;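 also: potency of compounds raising TNAP activity as a selectivity check on IAP activators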
# T7 sequence (P05186 whole entry): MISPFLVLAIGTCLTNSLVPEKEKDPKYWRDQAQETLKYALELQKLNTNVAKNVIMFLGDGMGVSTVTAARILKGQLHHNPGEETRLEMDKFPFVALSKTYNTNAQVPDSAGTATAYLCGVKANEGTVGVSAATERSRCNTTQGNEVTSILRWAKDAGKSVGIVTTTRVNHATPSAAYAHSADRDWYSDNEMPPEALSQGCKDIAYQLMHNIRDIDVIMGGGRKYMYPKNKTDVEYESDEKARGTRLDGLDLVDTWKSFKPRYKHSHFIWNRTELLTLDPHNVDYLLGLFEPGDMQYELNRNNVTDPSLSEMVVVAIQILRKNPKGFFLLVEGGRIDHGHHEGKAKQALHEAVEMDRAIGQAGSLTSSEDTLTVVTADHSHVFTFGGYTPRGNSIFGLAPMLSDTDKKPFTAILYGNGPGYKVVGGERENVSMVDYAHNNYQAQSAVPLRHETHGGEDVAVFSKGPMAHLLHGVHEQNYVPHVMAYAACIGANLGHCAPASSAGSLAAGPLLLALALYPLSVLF
# [18] = biological target: T8, Intestinal-type alkaline phosphatase (Mus musculus, UniProt P24822); test: PubChem AID 488875; type: functional
# [19] = biological target: Delta-type opioid receptor (Homo sapiens, UniProt P41143); test: SAR Analysis of Agonists of the DOR Receptor using an Image-Based Assay - Set 3. [Related pubchem assays (depositor defined):AID1777, AID1786]; type: functional
# [20] = biological target: Mu-type opioid receptor (Homo sapiens, UniProt P35372); test: SAR Analysis of Agonists of the MOR Receptor using an Image-Based Assay - Set 3. [Related pubchem assays (depositor defined):AID1777, AID1785, AID1786, AID1966, AID2133, AID2136, AID2284, AID2285, AID2352]; type: functional
# [21] = biological target: T9, Kappa-type opioid receptor (Homo sapiens, UniProt P41145); test: kappa opioid receptor activation by imaging – image-based, set 3, SAR follow-up (AID 488833); type: functional
# [22] = biological target: T9, Kappa-type opioid receptor; test: SAR analysis of small molecule agonists of the kappa opioid receptor via a luminescent beta-arrestin assay - Set 3. [Related pubchem assays (depositor defined):AID1777, AID1785, AID1786, AID1966, AID2133, AID2136, AID2284, AID2500]; type: functional
# [23] = biological target: Dual specificity tyrosine-phosphorylation-regulated kinase 1A (Rattus norvegicus, UniProt Q63470); type: biochemical, Homo sapiens
# [24] = biological target: T8, Intestinal-type alkaline phosphatase; test: PubChem AID 488785; type: functional
# [25] = biological target: T6, Intestinal-type alkaline phosphatase; test: inhibition of human intestinal alkaline phosphatase – biochemical, dose response (AID 488876); type: functional
# [26] = biological target: T10, Insulin-degrading enzyme (Homo sapiens, UniProt P14735); test: Dose Response: Fluorescence polarization-based cell-based high throughput dose response assay for inhibitors of insulin-degrading enzyme (IDE). [Related pubchem assays: 434962 (Primary screen (IDE inhibitors in singlicate)), 449730 (Counterscreen (Cytotoxicity in triplicate)), 435028 (Confirmation (IDE inhibitors in triplicate)), 434984 (Summary …; type: functional
# T10 sequence (P14735 whole entry): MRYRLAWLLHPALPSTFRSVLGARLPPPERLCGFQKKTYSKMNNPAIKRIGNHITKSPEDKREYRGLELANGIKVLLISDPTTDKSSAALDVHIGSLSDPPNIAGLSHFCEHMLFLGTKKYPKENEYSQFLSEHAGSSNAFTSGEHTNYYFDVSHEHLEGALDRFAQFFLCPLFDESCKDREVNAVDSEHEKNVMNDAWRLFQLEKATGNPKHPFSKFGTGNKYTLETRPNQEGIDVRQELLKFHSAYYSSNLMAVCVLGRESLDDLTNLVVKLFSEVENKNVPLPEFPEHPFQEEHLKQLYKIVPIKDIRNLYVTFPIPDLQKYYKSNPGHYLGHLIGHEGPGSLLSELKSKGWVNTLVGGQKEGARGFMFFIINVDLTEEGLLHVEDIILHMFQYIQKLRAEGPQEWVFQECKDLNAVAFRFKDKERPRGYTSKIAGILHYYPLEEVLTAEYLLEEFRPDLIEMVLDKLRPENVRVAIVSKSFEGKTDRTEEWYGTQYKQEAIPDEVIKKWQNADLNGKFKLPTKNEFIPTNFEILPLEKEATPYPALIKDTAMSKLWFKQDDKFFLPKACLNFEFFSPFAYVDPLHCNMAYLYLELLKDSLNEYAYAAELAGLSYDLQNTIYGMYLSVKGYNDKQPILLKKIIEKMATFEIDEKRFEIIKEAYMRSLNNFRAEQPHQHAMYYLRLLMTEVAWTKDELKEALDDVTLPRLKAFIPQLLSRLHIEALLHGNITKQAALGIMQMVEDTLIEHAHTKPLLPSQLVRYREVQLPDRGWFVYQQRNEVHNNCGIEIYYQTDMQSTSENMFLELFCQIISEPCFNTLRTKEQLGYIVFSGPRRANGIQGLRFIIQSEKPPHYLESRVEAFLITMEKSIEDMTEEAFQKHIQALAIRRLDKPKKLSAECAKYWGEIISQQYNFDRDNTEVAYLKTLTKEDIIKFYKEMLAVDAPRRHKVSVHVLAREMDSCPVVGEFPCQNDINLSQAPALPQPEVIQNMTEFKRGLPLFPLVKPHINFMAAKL
# [27] = Counterscreen for IDE inhibitors: Luminescence-based cell-based high throughput dose response assay to identify compounds that are cytotoxic to HEK cells. [Related pubchem assays: 434962 (Primary screen (IDE inhibitors in singlicate)), 449730 (Counterscreen (Cytotoxicity in triplicate)), 435028 (Confirmation (IDE inhibitors in triplicate)) …; type: functional; conditions: HEK293
# [28] = biological target: T7, Alkaline phosphatase, tissue-nonspecific isozyme; test: TNAP enzyme inhibition by screening hits, dose response, selectivity assay for mouse IAP inhibitor project, biochemical, human TNAP, uHTS hits (AID 488906); type: functional
# T6 sequence (P09923 whole entry): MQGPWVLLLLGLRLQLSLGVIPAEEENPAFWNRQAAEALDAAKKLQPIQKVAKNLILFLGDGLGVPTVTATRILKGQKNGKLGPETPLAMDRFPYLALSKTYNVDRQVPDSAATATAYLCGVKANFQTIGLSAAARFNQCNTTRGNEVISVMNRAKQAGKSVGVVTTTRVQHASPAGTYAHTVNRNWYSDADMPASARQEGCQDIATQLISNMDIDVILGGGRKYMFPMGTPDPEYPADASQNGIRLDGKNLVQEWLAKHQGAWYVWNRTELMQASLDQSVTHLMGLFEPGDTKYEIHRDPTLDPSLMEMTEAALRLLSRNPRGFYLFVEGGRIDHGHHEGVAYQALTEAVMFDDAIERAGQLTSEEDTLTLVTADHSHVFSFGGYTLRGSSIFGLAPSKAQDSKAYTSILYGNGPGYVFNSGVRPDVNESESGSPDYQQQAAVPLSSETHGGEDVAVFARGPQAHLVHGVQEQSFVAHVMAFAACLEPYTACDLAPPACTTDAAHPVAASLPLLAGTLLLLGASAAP
# T8 sequence (P24822 whole entry): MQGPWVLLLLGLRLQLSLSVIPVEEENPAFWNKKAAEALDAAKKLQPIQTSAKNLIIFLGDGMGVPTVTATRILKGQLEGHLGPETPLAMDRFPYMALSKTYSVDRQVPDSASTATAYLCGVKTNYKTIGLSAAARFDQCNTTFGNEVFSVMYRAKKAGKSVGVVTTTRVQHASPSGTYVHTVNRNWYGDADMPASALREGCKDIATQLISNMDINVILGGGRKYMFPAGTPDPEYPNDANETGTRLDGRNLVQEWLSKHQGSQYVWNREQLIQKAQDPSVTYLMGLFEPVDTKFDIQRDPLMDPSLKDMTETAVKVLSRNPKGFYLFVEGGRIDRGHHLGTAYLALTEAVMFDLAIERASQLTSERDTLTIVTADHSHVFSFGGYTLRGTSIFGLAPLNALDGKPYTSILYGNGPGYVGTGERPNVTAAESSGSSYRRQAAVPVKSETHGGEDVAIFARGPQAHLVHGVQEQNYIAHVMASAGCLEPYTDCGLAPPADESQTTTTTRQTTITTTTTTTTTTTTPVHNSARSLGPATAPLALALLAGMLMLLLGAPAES
# T3 sequence (Q9Y2T6 whole entry): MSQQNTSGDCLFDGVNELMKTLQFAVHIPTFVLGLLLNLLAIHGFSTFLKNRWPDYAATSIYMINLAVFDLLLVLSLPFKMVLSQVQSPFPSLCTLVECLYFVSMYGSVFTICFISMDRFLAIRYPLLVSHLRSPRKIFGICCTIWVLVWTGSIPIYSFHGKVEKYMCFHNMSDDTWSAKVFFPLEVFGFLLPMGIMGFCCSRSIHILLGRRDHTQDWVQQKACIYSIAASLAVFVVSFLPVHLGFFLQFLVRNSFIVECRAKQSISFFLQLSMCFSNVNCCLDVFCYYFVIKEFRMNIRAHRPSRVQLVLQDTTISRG
# T9 sequence (P41145 whole entry): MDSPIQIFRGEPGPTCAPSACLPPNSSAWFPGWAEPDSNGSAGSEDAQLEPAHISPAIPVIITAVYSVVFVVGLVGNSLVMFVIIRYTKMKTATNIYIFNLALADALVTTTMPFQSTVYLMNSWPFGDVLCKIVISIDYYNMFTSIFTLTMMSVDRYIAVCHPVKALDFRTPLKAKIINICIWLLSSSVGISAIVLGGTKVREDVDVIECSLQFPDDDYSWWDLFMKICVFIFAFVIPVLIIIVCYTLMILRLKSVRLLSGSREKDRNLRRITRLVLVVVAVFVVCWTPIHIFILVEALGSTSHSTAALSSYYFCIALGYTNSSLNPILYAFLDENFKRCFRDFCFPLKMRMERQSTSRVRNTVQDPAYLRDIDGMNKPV
# T5 sequence (Q9UBE0 whole entry): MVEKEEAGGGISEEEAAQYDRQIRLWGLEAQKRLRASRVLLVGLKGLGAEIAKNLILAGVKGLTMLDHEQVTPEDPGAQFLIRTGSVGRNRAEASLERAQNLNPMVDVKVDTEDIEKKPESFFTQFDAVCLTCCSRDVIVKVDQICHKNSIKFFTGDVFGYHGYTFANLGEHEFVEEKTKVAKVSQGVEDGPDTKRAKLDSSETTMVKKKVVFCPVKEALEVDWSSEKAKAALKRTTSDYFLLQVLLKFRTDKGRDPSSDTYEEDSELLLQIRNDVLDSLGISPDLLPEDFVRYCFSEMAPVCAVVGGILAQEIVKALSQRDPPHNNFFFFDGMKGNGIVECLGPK
# T5 sequence (Q9UBT2 whole entry): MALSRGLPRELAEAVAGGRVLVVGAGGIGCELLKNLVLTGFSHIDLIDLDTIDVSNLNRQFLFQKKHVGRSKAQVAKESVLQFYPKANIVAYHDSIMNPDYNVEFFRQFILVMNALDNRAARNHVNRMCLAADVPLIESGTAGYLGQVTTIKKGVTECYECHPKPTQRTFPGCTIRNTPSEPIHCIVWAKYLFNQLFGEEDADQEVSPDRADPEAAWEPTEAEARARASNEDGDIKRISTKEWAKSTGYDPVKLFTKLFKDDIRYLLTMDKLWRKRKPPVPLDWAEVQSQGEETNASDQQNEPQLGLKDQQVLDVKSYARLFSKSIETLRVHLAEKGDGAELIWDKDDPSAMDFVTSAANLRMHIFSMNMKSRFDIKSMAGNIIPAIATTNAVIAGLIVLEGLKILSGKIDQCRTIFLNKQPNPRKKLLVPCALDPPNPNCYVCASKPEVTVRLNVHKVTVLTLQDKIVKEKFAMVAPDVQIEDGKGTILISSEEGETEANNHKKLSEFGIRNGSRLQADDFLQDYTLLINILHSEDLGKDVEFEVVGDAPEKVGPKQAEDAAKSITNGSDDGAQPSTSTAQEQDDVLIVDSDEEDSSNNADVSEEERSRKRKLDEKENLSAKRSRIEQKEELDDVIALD
# T2 sequence (P34972 whole entry): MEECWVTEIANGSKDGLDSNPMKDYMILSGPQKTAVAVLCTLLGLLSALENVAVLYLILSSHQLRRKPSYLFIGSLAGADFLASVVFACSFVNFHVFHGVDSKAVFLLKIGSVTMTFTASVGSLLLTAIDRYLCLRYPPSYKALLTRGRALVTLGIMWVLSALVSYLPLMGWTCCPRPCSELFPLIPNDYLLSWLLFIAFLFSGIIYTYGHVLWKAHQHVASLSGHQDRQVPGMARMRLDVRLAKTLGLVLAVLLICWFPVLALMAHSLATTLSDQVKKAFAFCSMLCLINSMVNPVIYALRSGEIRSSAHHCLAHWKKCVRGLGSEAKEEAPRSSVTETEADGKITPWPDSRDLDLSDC
# Sequence of Mu-type opioid receptor (P35372 whole entry): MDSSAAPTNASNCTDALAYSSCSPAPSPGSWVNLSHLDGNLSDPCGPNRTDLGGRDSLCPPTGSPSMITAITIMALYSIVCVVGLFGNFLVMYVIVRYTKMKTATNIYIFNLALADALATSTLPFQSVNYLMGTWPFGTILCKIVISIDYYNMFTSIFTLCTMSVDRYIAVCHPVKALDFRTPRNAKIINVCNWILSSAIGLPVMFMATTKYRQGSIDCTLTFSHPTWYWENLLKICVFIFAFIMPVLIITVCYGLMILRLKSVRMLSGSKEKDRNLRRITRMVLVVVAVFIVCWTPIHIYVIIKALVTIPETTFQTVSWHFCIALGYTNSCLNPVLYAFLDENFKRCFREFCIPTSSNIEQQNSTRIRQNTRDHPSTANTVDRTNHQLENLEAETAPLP
# Sequence of Cannabinoid receptor 1 (P21554 whole entry): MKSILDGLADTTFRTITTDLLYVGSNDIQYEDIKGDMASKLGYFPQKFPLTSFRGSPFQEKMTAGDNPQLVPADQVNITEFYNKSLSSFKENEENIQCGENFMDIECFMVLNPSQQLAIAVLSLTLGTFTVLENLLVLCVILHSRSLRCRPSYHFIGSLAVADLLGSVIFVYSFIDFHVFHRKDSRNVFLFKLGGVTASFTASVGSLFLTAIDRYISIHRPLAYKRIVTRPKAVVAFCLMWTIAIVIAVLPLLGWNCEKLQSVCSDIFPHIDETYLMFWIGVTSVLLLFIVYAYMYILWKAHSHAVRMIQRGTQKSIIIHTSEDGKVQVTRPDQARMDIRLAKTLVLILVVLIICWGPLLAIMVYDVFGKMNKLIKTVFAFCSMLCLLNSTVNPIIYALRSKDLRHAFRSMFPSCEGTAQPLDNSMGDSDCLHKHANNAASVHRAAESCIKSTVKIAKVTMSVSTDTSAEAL
# Sequence of Phospholipase A2 (P04054 whole entry): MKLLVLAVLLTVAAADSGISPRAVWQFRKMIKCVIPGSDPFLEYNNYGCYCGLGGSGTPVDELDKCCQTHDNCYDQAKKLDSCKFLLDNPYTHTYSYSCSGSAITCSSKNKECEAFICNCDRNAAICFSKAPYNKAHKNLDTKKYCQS
# Sequence of SUMO E1/E2 (Q9UBE0 whole entry): as the sequence (Q9UBE0 whole entry) above
# Sequence of SUMO E1/E2 (Q9UBT2 whole entry): as the sequence (Q9UBT2 whole entry) above
# Sequence of SUMO E1/E2 (P63279 whole entry): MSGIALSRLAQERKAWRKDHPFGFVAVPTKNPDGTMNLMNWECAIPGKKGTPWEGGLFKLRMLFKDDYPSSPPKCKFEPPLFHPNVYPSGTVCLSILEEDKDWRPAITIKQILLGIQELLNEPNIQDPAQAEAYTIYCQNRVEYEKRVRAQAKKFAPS
# Sequence of Delta-type opioid receptor (P41143 whole entry): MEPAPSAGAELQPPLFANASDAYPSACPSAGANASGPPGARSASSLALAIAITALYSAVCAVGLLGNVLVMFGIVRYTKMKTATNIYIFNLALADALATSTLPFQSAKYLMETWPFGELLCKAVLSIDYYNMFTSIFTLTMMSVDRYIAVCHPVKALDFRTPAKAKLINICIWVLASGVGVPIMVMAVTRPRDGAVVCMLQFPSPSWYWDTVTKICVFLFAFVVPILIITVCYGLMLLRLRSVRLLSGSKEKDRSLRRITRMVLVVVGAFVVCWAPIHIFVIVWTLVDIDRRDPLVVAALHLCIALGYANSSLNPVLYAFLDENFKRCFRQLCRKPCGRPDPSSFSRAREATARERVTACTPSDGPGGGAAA
smiles,measurement,setting,value
COc1cc2c(cc1NC(=O)C(C)Sc1ccc(NC(C)=O)cc1)oc1ccccc12 (stereo not drawn),IC50,[1],14.7 µM (active)
same,IC50,[2],> 32 µM (inactive)
same,EC50,[3],0.865 µM (active)
same,EC50,[4],0.806 µM (active)
same,EC50,[5],> 32 µM (inactive)
same,EC50,[6],> 195 µM (not active)
same,IC50,[7],10 µM (active)
same,IC50,[8],> 32 µM (inactive)
O=C1c2ccccc2NC(c2ccc(-c3cccc([N+](=O)[O-])c3)o2)N1O (stereo not drawn),IC50,[9],> 119 µM (inactive)
same,IC50,[10],> 119 µM (inactive)
same,IC50,[11],11.9 µM (active)
COc1cc(C2c3c(oc4ccccc4c3=O)C(=O)N2c2nccs2)ccc1O (stereo not drawn),IC50,[12],36 µM (active)
same,IC50,[13],81.5 µM (active)
same,IC50,[14],12.7 µM (active)
COc1cc(OC)cc(C(=O)NNC(=O)c2nn(C)c(=O)c3ccccc23)c1,EC50,[15],11.8 µM (active)
same,EC50,[16],12.4 µM (active)
same,EC50,[17],11.8 µM (active)
same,EC50,[18],> 100 µM (inactive)
Cc1c(CSc2nnc(-c3ccccn3)n2Cc2ccco2)cccc1[N+](=O)[O-],EC50,[19],> 64 µM (inactive)
same,EC50,[20],> 32 µM (inactive)
same,EC50,[21],12.2 µM (inactive)
same,EC50,[22],8.21 µM (active)
COc1cc(/C=N/N2C(=O)CSC2=S)ccc1O,AC50,[23],9.55 µM (active)
same,IC50,[24],2.2 µM (active)
same,IC50,[25],21.3 µM (active)
same,IC50,[26],> 6.22 µM (active)
same,IC50,[27],> 55.7 µM (not active)
same,IC50,[28],> 100 µM (inactive)
